Assay results as given in patent US20090220516A1, “Neuroprotection of retinal ganglion cells” (priority 2005, published 2009).

How the values were obtained:
rat P2X7 receptor = molecular target: T1, rat P2X7 receptor (Rattus norvegicus, UniProt Q64663); conditions: cited from earlier work
T1 sequence (Q64663 1-595): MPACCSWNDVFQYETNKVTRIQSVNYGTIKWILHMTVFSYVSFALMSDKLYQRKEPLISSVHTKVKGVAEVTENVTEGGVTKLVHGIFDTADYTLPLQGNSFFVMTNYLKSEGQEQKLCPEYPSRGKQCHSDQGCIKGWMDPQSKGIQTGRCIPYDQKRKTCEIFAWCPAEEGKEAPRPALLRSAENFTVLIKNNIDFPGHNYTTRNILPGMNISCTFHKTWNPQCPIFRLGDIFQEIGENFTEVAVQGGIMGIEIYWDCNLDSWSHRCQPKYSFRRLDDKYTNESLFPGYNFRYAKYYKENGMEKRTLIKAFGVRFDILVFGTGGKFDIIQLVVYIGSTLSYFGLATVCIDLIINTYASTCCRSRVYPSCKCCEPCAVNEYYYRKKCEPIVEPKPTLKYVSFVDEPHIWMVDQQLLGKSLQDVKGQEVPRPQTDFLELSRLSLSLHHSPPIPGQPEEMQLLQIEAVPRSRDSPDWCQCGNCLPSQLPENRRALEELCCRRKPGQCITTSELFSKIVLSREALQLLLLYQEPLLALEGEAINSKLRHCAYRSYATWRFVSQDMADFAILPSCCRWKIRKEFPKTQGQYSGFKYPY

retinal ganglion cells = assay: Cell viability studies: labeled retinal ganglion cells surviving after 24 hrs in mixed retinal cultures; assay type: cell-based, rat; conditions: 300 uM ATP alone, 24 hrs
Description: Pups PD2-6 from untimed pregnant Long-Evan rats (Jackson Laboratory Inc., Bar Harbor, Me.) were back-labeled by the injection of FluoroGold derivative aminostilbamidine (Molecular Probes, Eugene, Oreg.) based upon standard protocols. […] Using a Hamilton syringe affixed to a micromanipulator, a needle was inserted 0.8 mm lateral from the midline and 0.8 mm anterior to Bregma's line and a total of 2.5 μl dye was delivered to each side at a depth of 2 mm and 1 mm. The needle was retracted after a delay of 2 min to allow dye absorption and the wound was closed with 2-3 sutures. Preliminary examination of labeled retinal whole mounts confirmed an even distribution of dye, showing all cells were stained 2 days after injection, with no further increase in the number of labeled cells in subsequent days. Consequently, retinas containing labeled ganglion cells were dissociated 2-6 days after injection. Animals were sacrificed by i.p. injection of 50/5 mg/kg Ketamine/Xylazine followed by an overdose, in accordance with University of Pennsylvania IACUC approved protocols and the ARVO Statement on the Use of Animals in Ophthalmic and Vision Research.
The retina was dissected from each globe, washed in sterile Hanks' balanced salt solution (HBSS, Gibco, Inc Invitrogen Corp., Carlsbad, Calif.), then incubated in HBSS containing activated papain (4.5 U/ml; Worthington Biochemical Corp., Lakewood, N.J.) for 12 minutes at 37° C. Retinas were washed twice and triturated 50 times with a 1-ml glass pipette to dissociate cells. Cells were plated onto twelve 12-mm coverslips previously coated with poly-L-lysine. […] Retinal cells were incubated at 37° C. with 5% CO2.
Drugs were added to the culture medium at the time when cells were plated onto coverslips. […] All counts were performed in a masked fashion. In experiments involving antagonist pretreatment, drugs were added to the medium at the time of plating. After preincubation at 37° C., stock concentrations of BzATP were added directly to the cells to give the final concentration shown.
Data are presented as mean±standard error of the mean. Significance was evaluated using a Student's unpaired t test, with a p value <0.05 signifying significance. For cell viability studies, the number of experiments, n, represents the number of coverslips from which 80 fields were measured and averaged. All values were normalized to the mean control level for that day's matched set of experiments to control for variation in plating efficiency.

retina eyecup = assay: Pressure-triggered ATP release from the bovine retina eyecup; conditions: 30 μM NPPB, 15 minutes preincubation and in medium
Excerpt: C. ATP release by increased extracellular pressure is inhibited by the general chloride channel blocker NPPB, indicating physiologic significance. […] The ATP levels were normalized with the non-pressure and non NPPB eyecup control levels (white bar). Bars represent the mean±standard error. Numbers indicates the number of retina eyecups per experiment. We performed ANOVA test (Dunnett post-test) to obtain the significant differences indicated by a * symbol (p<0.05) as significant difference with control and ** (p<0.05) as significant difference with the pressure challenged eyecups.

## Nc1ncnc2c1ncn2C1OC(COP(=O)(O)OP(=O)(O)OP(=O)(O)O)C(O)C1O (stereo not drawn) [ATP]
Rat P2X7 receptor
  EC50: 300 µM
Retinal ganglion cells
  effect on ganglion cell survival: small but significant increase in cell survival

## O=C(O)c1cc([N+](=O)[O-])ccc1NCCCc1ccccc1 [NPPB, 5-nitro-2-(3-phenylpropyl-amino)benzoic acid]
Retina eyecup
  effect on ATP release induced by 20 mm Hg rise in extracellular pressure: inhibits the ATP release
